Literature values in article PMC6525002 (Cancer Management and Research, 2019).

Legend:
patients with NSCLC = conditions: clinical trials; cited from earlier work
[1] = cited from earlier work
[2] = test system: NSCLC patients with EGFR mutations; conditions: cited from earlier work

CN(C)C/C=C/C(=O)Nc1cc2c(Nc3ccc(F)c(Cl)c3)ncnc2cc1O[C@H]1CCOC1 [afitinib]
frequency of diarrhea (patients with NSCLC): 87.0%

COc1cc2ncnc(Nc3ccc(F)c(Cl)c3)c2cc1OCCCN1CCOCC1 [gefitinib]
time to Cmax ([1]; cancer patients, post-dose): 3 h
inter-patient variability of exposure ([1]; post single-dose exposure): 1.5 fold

C#Cc1cccc(Nc2ncnc3cc(OCCOC)c(OCCOC)cc23)c1 [erlotinib]
frequency of diarrhea (patients with NSCLC): 40.0–67.9%
response rates on brain metastases [2]: 60–80%
